Molecular target: T1, PDGFRA D842V (Homo sapiens, UniProt P16234, D842V)
T1 construct: purchased Thermo Fisher Scientific (Life Technologies) SelectScreen
Test: SelectScreen Z'LYTE
Assay type: biochemical
Summary of the method: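 NU5455 was profiled across the SelectScreen Broad panel of kinase activity and binding assays. Z'LYTE reactions such as CSF1R ran at apparent Km ATP, while the Adapta CAMK1 assay used ATP listed as 10. Values are given as percent.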

T1 sequence (P16234 24-1089 D842V): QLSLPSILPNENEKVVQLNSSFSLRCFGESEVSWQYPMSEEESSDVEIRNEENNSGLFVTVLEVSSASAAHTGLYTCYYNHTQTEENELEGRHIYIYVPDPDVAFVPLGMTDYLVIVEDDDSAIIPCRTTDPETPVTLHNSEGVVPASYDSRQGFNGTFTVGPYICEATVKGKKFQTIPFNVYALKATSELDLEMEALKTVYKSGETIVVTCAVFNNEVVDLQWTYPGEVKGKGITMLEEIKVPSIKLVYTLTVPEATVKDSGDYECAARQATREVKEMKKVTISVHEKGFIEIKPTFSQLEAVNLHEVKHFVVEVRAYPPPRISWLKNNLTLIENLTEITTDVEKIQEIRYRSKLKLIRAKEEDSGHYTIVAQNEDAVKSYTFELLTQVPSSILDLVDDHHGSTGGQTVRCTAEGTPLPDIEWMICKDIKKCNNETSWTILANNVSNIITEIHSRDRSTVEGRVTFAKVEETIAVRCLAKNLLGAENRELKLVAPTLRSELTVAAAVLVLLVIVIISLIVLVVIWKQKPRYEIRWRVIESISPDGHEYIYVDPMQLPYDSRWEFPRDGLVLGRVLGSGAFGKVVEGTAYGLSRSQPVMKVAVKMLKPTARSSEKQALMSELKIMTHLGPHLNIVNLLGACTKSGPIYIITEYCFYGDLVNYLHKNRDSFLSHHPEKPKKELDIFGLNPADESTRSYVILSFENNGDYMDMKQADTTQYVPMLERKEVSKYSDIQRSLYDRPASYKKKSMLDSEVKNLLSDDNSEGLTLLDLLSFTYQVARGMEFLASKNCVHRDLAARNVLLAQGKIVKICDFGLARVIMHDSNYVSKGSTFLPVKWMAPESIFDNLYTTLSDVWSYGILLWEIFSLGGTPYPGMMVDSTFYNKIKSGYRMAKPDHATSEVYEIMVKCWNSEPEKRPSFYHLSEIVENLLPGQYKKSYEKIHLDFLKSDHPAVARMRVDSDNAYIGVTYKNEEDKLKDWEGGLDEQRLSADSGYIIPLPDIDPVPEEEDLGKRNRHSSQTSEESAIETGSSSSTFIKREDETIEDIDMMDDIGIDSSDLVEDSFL

Compound CN(C(=O)CN1CCOCC1)c1ccc2sc3c(-c4cccc5c(=O)cc(N6CC7CCC(C6)O7)oc45)cccc3c2c1 [NU5455] has an inhibition at 1 µM of -5%.

Reference: publication PMC6934184, “Selective DNA-PKcs inhibition extends the therapeutic index of localized radiotherapy and chemotherapy” (The Journal of Clinical Investigation, 2019)
